The subject of experiment [1] is male Slc:ICR mice. As to the kind of experiment: Action against formalin-induced pain behavior in mice. In kind it is in vivo. Particulars: Mus musculus, iv, 0.1 h, test substance 1 mg/kg intravenously, 6 minutes observation, read-out: Percent inhibition of pain-related behavior time (%). Here is the method: 4 to 6-week-old male Slc:ICR mice (available from Japan SLC, Inc.) were used. A medium or a test substance (1 mg/kg or 3 mg/kg) was intravenously administered to each mouse, and immediately thereafter, 20 μL of 1% or 5% formalin was subcutaneously administered to a right hind paw of the mouse. Thereafter, the mice were quickly put into an observation cage and measured for the total time (sec) of pain-related behavior (licking or biting behavior against the right hindlimb) during 6 minutes, and an average value of the pain-related behavior time of each group was calculated.
The intensity of an analgesic action of the test substance was evaluated in terms of percent inhibition (%) of pain-related behavior time which is calculated as {(A−B)/A×100}, wherein A is an average value of the pain-related behavior time of a medium-administered group, and B is an average value of the pain-related behavior time of a test substance-administered group.

The test system of experiment [2] is male Slc:ICR mice. As to the kind of experiment: Action against pain-related behavior and micturition cycle in mice with cyclophosphamide (CP)-induced acute cystitis. In kind it is in vivo. Particulars: Mus musculus, iv, 0.25 h, CP 300 mg/kg i.p., 15 minutes observation; for inhibition in vivo at 1 mg/kg: test substance 1 mg/kg intravenously 3 hours after CP; for inhibition in vivo at 3 mg/kg: test substance 3 mg/kg intravenously 3 hours after CP. The procedure:
An action of a test substance against visceral pain and frequent urination associated with cystitis, which was induced by intraperitoneal administration (20 mL/kg) of CP (300 mg/kg) to 4 to 5-week-old male Slc:ICR mice (available from Japan SLC, Inc.), was investigated. This experiment was performed according to a method described in European Journal of Pharmacology, 676 (2012), pp. 75-80.
Three hours after the administration of CP, a test substance (1 mg/kg or 3 mg/kg) was intravenously administered, and observation by visual inspection and video recording were performed for 15 minutes immediately thereafter. In the observation by visual inspection, four pain-related behaviors (eye opening, rounded back, leg dragging, and behavior during urination) were scored, each rated on a scale of 0-10, according to the following criteria.
Eye opening (normal: 0 point, sometimes closed or half-open eyes: 5 points, completely closed: 10 points)
Rounded back (normal: 0 point, sometimes crouched: 5 points, crouched at almost all times: 10 points)
Leg dragging (normal: 0 point, leg dragging: 10 points)
Behavior during urination (normal: 0 point, shaking hip in micturition: 10 points)
In addition, the video was played back, and the frequency of licking behavior around the abdomen as a pain-related behavior was scored, rated on a scale of 0-10, according to the following criteria.
Licking behavior around the abdomen (0 to 3 times: 0 point, 4 times to 10 times: 5 points, 11 times or more: 10 points)
Furthermore, the video was played back, and the frequency of urination (urination marks) on a filter paper was counted and taken as an index for micturition cycle.
An average value of the pain-related behavior score of each group (total score of the five items: 50 points at maximum) and an average value of the frequency of urination (urination marks) on the filter paper were determined.
The strength of an analgesic action of the test substance against the CP-induced visceral pain was evaluated in terms of percent inhibition (%) of pain-related behavior score which is calculated as {(A−B)/A×100}, wherein A is an average value of the pain-related behavior score of a medium-administered group, and B is an average value of the pain-related behavior score of a test substance-administered group.
In addition, the strength of a frequent urination inhibitory action of the test substance against the CP-induced frequent urination was evaluated in terms of percent inhibition (%) of the frequency of urination which is calculated as {(C−D)/C×100}, wherein C is an average value of the frequency of urination of a medium-administered group, and D is an average value of the frequency of urination of a test substance-administered group.

In experiment [3] the target is T1, human mGluR5 (Homo sapiens, UniProt P41594).
T1 construct: expressed in transfected cells
T1 sequence (P41594 21-1212): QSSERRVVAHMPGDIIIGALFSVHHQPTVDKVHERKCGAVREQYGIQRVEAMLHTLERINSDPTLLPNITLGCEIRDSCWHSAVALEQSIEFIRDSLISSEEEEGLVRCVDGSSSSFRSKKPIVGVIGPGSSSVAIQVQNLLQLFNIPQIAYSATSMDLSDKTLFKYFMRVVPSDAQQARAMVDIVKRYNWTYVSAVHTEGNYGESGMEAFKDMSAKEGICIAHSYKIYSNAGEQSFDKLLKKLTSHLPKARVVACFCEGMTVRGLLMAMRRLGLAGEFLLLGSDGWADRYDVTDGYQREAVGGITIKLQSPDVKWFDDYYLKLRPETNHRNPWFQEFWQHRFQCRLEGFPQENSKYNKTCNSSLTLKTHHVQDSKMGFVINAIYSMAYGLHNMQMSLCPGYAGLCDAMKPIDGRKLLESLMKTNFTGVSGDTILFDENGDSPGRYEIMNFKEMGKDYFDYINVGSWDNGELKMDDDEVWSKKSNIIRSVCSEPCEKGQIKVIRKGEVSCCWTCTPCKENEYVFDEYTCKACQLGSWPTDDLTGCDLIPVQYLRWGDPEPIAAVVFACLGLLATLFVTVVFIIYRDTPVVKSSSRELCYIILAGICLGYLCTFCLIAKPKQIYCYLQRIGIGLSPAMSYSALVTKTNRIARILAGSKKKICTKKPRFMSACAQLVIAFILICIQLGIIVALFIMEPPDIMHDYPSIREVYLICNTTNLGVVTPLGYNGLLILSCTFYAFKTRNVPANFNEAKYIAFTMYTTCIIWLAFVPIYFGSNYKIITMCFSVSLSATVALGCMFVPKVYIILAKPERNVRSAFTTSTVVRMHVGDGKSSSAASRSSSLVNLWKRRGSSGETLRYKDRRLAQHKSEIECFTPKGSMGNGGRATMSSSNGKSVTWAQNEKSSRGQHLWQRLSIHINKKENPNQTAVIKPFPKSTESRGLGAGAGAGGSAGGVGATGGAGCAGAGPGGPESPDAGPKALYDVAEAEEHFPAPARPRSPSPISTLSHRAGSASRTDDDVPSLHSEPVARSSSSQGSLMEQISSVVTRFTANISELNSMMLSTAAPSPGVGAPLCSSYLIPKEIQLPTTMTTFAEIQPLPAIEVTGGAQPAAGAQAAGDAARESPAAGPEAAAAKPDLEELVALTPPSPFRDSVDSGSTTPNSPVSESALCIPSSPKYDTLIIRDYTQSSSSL
As to the kind of experiment: Experiment for receptor function of mGluR5 (Ca2+-dependent fluorescence, FLIPR, CHO-K1 cells stably expressing human mGluR5). In kind it is cell-based. Particulars: L-glutamic acid 10 μM, Fluo-4 fluorescence. The gist of the method: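 Fluo-4-loaded CHO-K1 cells pre-incubated 2 min with test substance, then stimulated with L-glutamic acid (final 10 μM) in HBSS, pH 7.4. FLIPR Ca2+ fluorescence normalized to glutamate alone (100%) and glutamate with 10 μM MPEP (0%); IC50 estimated by logistic fit.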

Where [4] appears, read: read-out: Percent inhibition of pain-related behavior score (%).
[5] abbreviates: read-out: Percent inhibition of the frequency of urination (%).

For 18 compounds, inhibition in vivo and IC50 results are on record in US20150225404A1, “PYRIDINE DERIVATIVE AND MEDICINE” (NIPPON SHINYAKU CO., LTD., priority 2012, published 2015).

Where a name gives a salt, the structure may show the parent alone. Read-outs that look alike come from different tables or passages of the source.

As for `N#Cc1ccc(-c2cc(OCc3ccc(F)cn3)nc3c2CCC3)cn1` [Example 9, 5-{2-[(5-Fluoropyridin-2-yl)methoxy]-6,7-dihydro-5H-cyclopenta[b]pyridin-4-yl}pyridine-2-carbonitrile], the inhibition in vivo at 1 mg/kg in experiment [1] (5% formalin) turned out to be 39.1%; in experiment [2] (setting [4]), 23.9%; in experiment [2] (setting [5]), 36.3%.

As usually defined, the IC50 is the concentration that gives 50% inhibition. Low values mean higher potency, high ones lower potency. Turning to `Fc1cccnc1COc1cc(-c2cncnc2)c2c(n1)CCC2` [Example 26, 2-[(3-Fluoropyridin-2-yl)methoxy]-4-(pyrimidin-5-yl)-6,7-dihydro-5H-cyclopenta[b]pyridine], in experiment [1] (1% formalin), the inhibition in vivo at 1 mg/kg came to 71.9%. Moreover, the inhibition in vivo at 3 mg/kg in experiment [2] (setting [4]) came to 60.5%; in experiment [2] (setting [5]) it was 57.3%. The compound further had an IC50 in experiment [3] of 73.6 nM.

For `c1ncc(-c2cc(OCc3ncco3)nc3c2CCCC3)cn1` [Example 165, 2-(1,3-Oxazol-2-ylmethoxy)-4-(pyrimidin-5-yl)-5,6,7,8-tetrahydroquinoline], in experiment [1] (1% formalin), the inhibition in vivo at 1 mg/kg was determined as 52.3%. This compound also displayed an IC50 in experiment [3] of 37.9 nM.

Take `N#Cc1ncc(-c2cc(OCc3ccccn3)nc3c2CCCC3)cn1` [Example 173, 5-[2-(Pyridin-2-ylmethoxy)-5,6,7,8-tetrahydroquinolin-4-yl]pyrimidine-2-carbonitrile hydrochloride]: the inhibition in vivo at 1 mg/kg in experiment [1] (5% formalin) is 65.4%. The inhibition in vivo at 3 mg/kg amounted to 63.3% in experiment [2] (setting [4]) and 52.6% in experiment [2] (setting [5]). The compound also came in with an IC50 in experiment [3] of 161 nM.

As to `Cc1ncc(-c2cc(OCc3ncccc3F)nc3c2CCCC3)cn1` [Example 187, 2-[(3-Fluoropyridin-2-yl)methoxy]-4-(2-methylpyrimidin-5-yl)-5,6,7,8-tetrahydroquinoline], the inhibition in vivo at 1 mg/kg in experiment [1] (5% formalin) was determined as 59.4%; in experiment [2] (setting [4]), 22.9%; in experiment [2] (setting [5]), 51.6%. For the same compound, the IC50 in experiment [3] worked out at 36 nM.

`N#Cc1nccnc1-c1cc(OCc2ccccn2)nc2c1CCCC2` [Example 198, 3-[2-(Pyridin-2-ylmethoxy)-5,6,7,8-tetrahydroquinolin-4-yl]pyrazine-2-carbonitrile hydrochloride]: the inhibition in vivo at 1 mg/kg in experiment [1] (1% formalin) worked out at 24.7%. Moreover, the inhibition in vivo at 3 mg/kg in experiment [2] (setting [4]) is 40.4%; in experiment [2] (setting [5]), 37.6%. Further, in experiment [3], the IC50 was 56.3 nM.

`Cc1cncc(-c2cc(OCc3ncccc3F)nc3c2CCCC3)n1` [Example 214, 2-[(3-Fluoropyridin-2-yl)methoxy]-4-(6-methylpyrazin-2-yl)-5,6,7,8-tetrahydroquinoline]: the inhibition in vivo at 1 mg/kg in experiment [1] (5% formalin) came to 55.3%. Also, the results for the inhibition in vivo at 3 mg/kg in experiment [2] (setting [4]) and in experiment [2] (setting [5]) were 44.2% and 25.3%, respectively. This compound also yielded an IC50 in experiment [3] of 131 nM.

As to `OCc1cncc(-c2cc(OCc3ccc(F)cn3)nc3c2CCCC3)n1` [Example 216, (6-{2-[(5-Fluoropyridin-2-yl)methoxy]-5,6,7,8-tetrahydroquinolin-4-yl}pyrazin-2-yl)methanol], the inhibition in vivo at 1 mg/kg in experiment [1] (5% formalin) was 41.2%. For the same compound, the results for the inhibition in vivo at 3 mg/kg in experiment [2] (setting [4]) and in experiment [2] (setting [5]) were 28.2% and 30.1%, respectively.

As to `OCc1ncc(-c2cc(OCc3ccccn3)nc3c2CCCC3)s1` [Example 226, {5-[2-(Pyridin-2-ylmethoxy)-5,6,7,8-tetrahydroquinolin-4-yl]-1,3-thiazol-2-yl}methanol hydrochloride], the inhibition in vivo at 1 mg/kg in experiment [1] (1% formalin) was 26.8%. The same compound had an IC50 in experiment [3] of 52.1 nM.

For `COCc1ncc(-c2cc(OCc3ccccn3)nc3c2CCCC3)s1` [Example 227, 4-[2-(Methoxymethyl)-1,3-thiazol-5-yl]-2-(pyridin-2-ylmethoxy)-5,6,7,8-tetrahydroquinoline], the inhibition in vivo at 1 mg/kg in experiment [1] (1% formalin) was 25.6%. This compound also registered an IC50 in experiment [3] of 36.2 nM.

With `[O-][n+]1cncc(-c2cc(OCc3ccccn3)nc3c2CCCC3)c1` [Example 231, 4-(1-Oxidopyrimidin-5-yl)-2-(pyridin-2-ylmethoxy)-5,6,7,8-tetrahydroquinoline], in experiment [1] (5% formalin), the inhibition in vivo at 1 mg/kg stood at 66.1%. The compound also came in with an IC50 in experiment [3] of 304 nM.

As to `c1ccc(COc2cc(-c3cncnc3)c3c(n2)CCCCC3)nc1` [Example 233, 2-(Pyridin-2-ylmethoxy)-4-(pyrimidin-5-yl)-6,7,8,9-tetrahydro-5H-cyclohepta[b]pyridine hydrochloride], the inhibition in vivo at 1 mg/kg in experiment [1] (1% formalin) was determined as 59.5%. Besides, the IC50 in experiment [3] was found to be 10.9 nM.

Turning to `CC1CCc2c(-c3cncnc3)cc(OCc3ccccn3)nc21` (stereo not shown) [Example 238, 7-Methyl-2-(pyridin-2-ylmethoxy)-4-(pyrimidin-5-yl)-6,7-dihydro-5H-cyclopenta[b]pyridine], the inhibition in vivo at 1 mg/kg in experiment [1] (5% formalin) is 77.9%. In addition, the IC50 in experiment [3] was 23 nM.

For `N#Cc1ccc(-c2cc(OCc3ncc(F)cc3F)nc3c2CCC3)cn1` [Example 246, 5-{2-[(3,5-Difluoropyridin-2-yl)methoxy]-6,7-dihydro-5H-cyclopenta[b]pyridin-4-yl}pyridine-2-carbonitrile], the inhibition in vivo at 1 mg/kg in experiment [1] (5% formalin) was 22.8%. In experiment [3], this compound gave an IC50 of 42 nM.

Regarding `Fc1ccc(COc2cc(-c3cncnc3)c3c(n2)CCC3)cc1` [Example 257, 2-[(4-Fluorobenzyl)oxy]-4-(pyrimidin-5-yl)-6,7-dihydro-5H-cyclopenta[b]pyridine], the inhibition in vivo at 1 mg/kg in experiment [1] (5% formalin) stood at 51.1%. The compound further yielded a 50% inhibitory concentration (IC50) in experiment [3] of 63.5 nM.

As for `Cc1ncc(-c2cc(OCc3ccc(F)cc3)nc3c2CCC3)cn1` [Example 260, 2-[(4-Fluorobenzyl)oxy]-4-(2-methylpyrimidin-5-yl)-6,7-dihydro-5H-cyclopenta[b]pyridine], in experiment [1] (5% formalin), the inhibition in vivo at 1 mg/kg came to 42.9%. The IC50 in experiment [3] was 79 nM.

Take `Fc1cccnc1COc1cc(-c2cccnn2)c2c(n1)CCC2` [Example 272, 2-[(3-Fluoropyridin-2-yl)methoxy]-4-(pyridazin-3-yl)-6,7-dihydro-5H-cyclopenta[b]pyridine]: the inhibition in vivo at 1 mg/kg in experiment [1] (5% formalin) is 40.5%. The compound further showed an IC50 in experiment [3] of 117 nM.

With `Fc1cnc(COc2cc(-c3cncnc3)c3c(n2)CCCC3)c(F)c1` [Example 277, 2-[(3,5-Difluoropyridin-2-yl)methoxy]-4-(pyrimidin-5-yl)-5,6,7,8-tetrahydroquinoline], in experiment [1] (5% formalin), the inhibition in vivo at 1 mg/kg stood at 60.9%. For the same compound, the inhibition in vivo at 3 mg/kg in experiment [2] (setting [4]) stood at 40.4%; in experiment [2] (setting [5]), 24.8%.
